Results published in patent US20180071317A1, “USE OF AGENTS THAT ALTER THE PERITUMORAL ENVIRONMENT FOR THE TREATMENT OF CANCER” (SERVICIO ANDALUZ DE SALUD, priority 2011, published 2018).

Assays:
[1] = tested on: fibroblasts (PHF) co-cultured with tumor cells, ovarian carcinoma (EFO-27); test: Marker expression (IHC) in PHF co-cultured with EFO-27 tumor cells; format: cell-based, human; details: co-culture with EFO-27; SP 1 μM + antagonist 1 μM; 48 h;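 also: values are the percentage of PHF fibroblasts positive for each marker, cultured in fresh plasma from a healthy human donor, each experiment run in six replicates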
Method: (§1) All cultures were maintained 48 hours, following which the same cells were included in paraffin blocks for subsequent analysis of the expression of different markers by immunohistochemistry (see Example 1). […] All experiments were carried out sixfold. Analyzed markers in fibroblast cells (stromal cells) were: TGF-α, TGF-β1, TGF-β2, TGF-β3, SPARC, MMP-3, MMP-7, MMP-9, MMP-11, MMP-13 and MMP-14.

[2] = tested on: fibroblasts (PHF) co-cultivated with tumor cell lymphoblastic leukemia B (SDI); test: Marker expression (IHC) in PHF co-cultured with SDI tumor cells; format: cell-based, human; details: PHF co-cultivated with SDI + SP + NK1 antagonist
Method: as §1

[3] = tested on: human primary macrophages (PHM); test: Marker expression (immunohistochemistry) in human primary macrophages with SP alone or with NK1 antagonists; format: cell-based; details: SP 1 μM + antagonist 1 μM; 48 h
Method: In this sense the next step was to analyze the effect exerted by the treatment with non-peptide NK1 antagonists in human primary macrophages (PHM) obtained and purified from pleural effusion samples obtained from men with chronic age range between 45 and 55 years. Briefly, the pleural fluid from chronic (rich in macrophages) was centrifuged.
After 48 hours of culture, cells were harvested and cellular paraffin blocks were constructed for immunohistochemical analysis (see Example 1). To analyze the expression of markers EGF, MMP-9, VEGF and IL-8 antibodies were used as follows: EGF (rabbit monoclonal antibody, anti-EGF; 07-1432. Merck-Millipore), MMP-9 (polyclonal rabbit anti-MMP-9: SAB4501896, Sigma-Aldrich), VEGF (mouse monoclonal anti-VEGF, GF25-100UG, Merck-Millipore) and TNF-α (mouse monoclonal anti-TNF-α, number MAB 1021 catalogue, obtained from Merck-Millipore). All of these antibodies were used at a concentration of 1/1000. System for labelling with a secondary antibody specific for the primary antibodies obtained from rabbit or mouse was used, as was necessary in each case, both the Envision (Dako). All experiments were carried out sixfold.

[4] = tested on: fibroblasts (PHF) co-cultured with human glioma tumor cells (GAMG); test: Marker expression (IHC) in PHF co-cultured with GAMG tumor cells; format: cell-based; details: co-culture with GAMG; SP 1 μM + antagonist 1 μM; 48 h;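 also: percentage of PHF fibroblasts positive for each marker, cultured in fresh plasma from a healthy donor, six replicates, with fibroblasts cultured alone as reference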
Method: as §1

[5] = tested on: fibroblasts (PHF) co-cultured with human melanoma tumor cells (MEL-HO1); test: Marker expression (IHC) in PHF co-cultured with MEL-HO1 tumor cells; format: cell-based; details: PHF co-cultured with MEL-HO1 + SP + NK1 antagonist;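 also: values are the percentage of fibroblasts positive for each marker, with cultures grown in fresh healthy-donor blood plasma and each experiment run six times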
Method: as §1

[6] = tested on: fibroblasts (PHF) cells co-cultured with human T lymphoma tumor (DERL-7); test: Marker expression (IHC) in PHF co-cultured with DERL-7 tumor cells; format: cell-based; details: PHF co-cultured with DERL-7 + SP + NK1 antagonist
Method: (§2) All cultures were maintained 48 hours, following which the same cells were included in paraffin blocks for subsequent analysis of the expression of different markers by immunohistochemistry (see Example 1). The primary antibodies used to perform immunohistochemical assays and their concentration are detailed in Example 2. All experiments were carried out sixfold. Analyzed markers in fibroblast cells (stromal cells) were: TGF-α, TGF-β1, TGF-β2, TGF-β3, SPARC, MMP-3, MMP-7, MMP-9, MMP-11, MMP-13 and MMP-14.

[7] = tested on: fibroblasts (PHF) co-cultured with tumor cells, thyroid carcinoma; test: Marker expression (IHC) in PHF co-cultured with thyroid carcinoma tumor cells; format: cell-based, human; details: co-culture with thyroid carcinoma cells; SP 1 μM + antagonist 1 μM; 48 h;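 also: grown in fresh plasma from a healthy human donor, read-out is percent of fibroblasts positive for each marker, compared with fibroblasts cultured alone, run in six replicates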
Method: as §1

[8] = tested on: fibroblasts (PHF) co-cultured with tumor cells, thyroid carcinoma (reference A-427); test: as above; format: cell-based, human; details: co-culture with thyroid carcinoma cells; SP 1 μM + antagonist 1 μM; 48 h
Method: as §1

[9] = tested on: macrophages in co-culture with cells isolated from primary human tumors; test: Marker expression (IHC) in macrophages co-cultured with primary human tumor cells (colon, breast, ovarian, lung carcinoma, melanoma); format: cell-based; details: SP 1 μM + antagonist 1 μM;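 also: macrophages came from pleural or peritoneal washings of the patient who also supplied the tumor cells, and both were co-cultured on fresh blood plasma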
Method: To check that the interaction of tumor cells obtained directly from primary human immune cell/inflammatory (macrophages) cells, obtained from the patient stimulate secretion of substances by these macrophages recognized as important in survival of both cell types and in the progression of tumor cells, co-cultures were performed on fresh blood plasma, immune cell/inflammatory (macrophages) with tumor cells derived from primary tumors. All obtained from the same patient, to build an experimental model similar to human physiology.
Macrophages were obtained from washing or pleural or peritoneal from the same patient from which the primary tumor cells were obtained in each case.

[10] = tested on: fibroblasts (PHF) co-cultured with tumor cells of human colon adenocarcinoma (SW-403); test: Marker expression (IHC) in PHF co-cultured with SW-403 tumor cells; format: cell-based; details: co-culture with SW-403; SP 1 μM + antagonist 1 μM; 48 h
Method: as §2

[11] = tested on: fibroblasts of tumors produced by tumor cell line of human melanoma (MEL HO); test: Marker expression (IHC) in fibroblasts of tumor or peritumoral area, mouse model, MEL HO; format: in vivo; details: MEL HO tumors in mice, 30 mg/kg/day oral, 7 days
Method: In vitro tests conducted in Example 5 are now carried out in an experimental model in mice in vivo. […] Subsequently, the expression in fibroblasts tumoral and peritumoral area of molecular markers associated with progression and maintenance of tumors: TGF-α, TGF-β1, TGF-β2, TGF-β3, MMP-7, MMP-11, MMP-14 were analyzed by immunohistochemistry.
Were injected with 2×10^7 cells tumors (corresponding, in each case to each of the tumor types as specified in Table 9) in 200 of PBS subcutaneously μl. […] Mice were randomized into two groups when the tumors reached a volume of 75 mm^3 One group was treated with non-peptide receptor antagonists NK1 and the other with placebo 200μ1. […] Tumors and samples of non-neoplastic stromal areas remote from the tumor were halved, formalin fixed (4%) and then were included in paraffin blocks for analysis by immunohistochemistry.
The expression on fibroblast cells obtained in the animal model was analyzed by immunohistochemistry, of the above markers: TGF-α, TGF-β1, TGF-β2, TGF-β3, MMP-7, MMP-1 1, MMP-14MP-14. Tables 32 to 35 depict the type of label used and the average percentage of fibroblasts present in non-tumor areas, tumor and peritumoral (±SD) which were expressing the marker shown in each of the tumor types developed from of the different cell lines used. This process was realized in mice treated with non-peptide antagonists of NK1 receptor and in untreated animals (control).

[12] = co-culture with cells isolated from breast carcinoma
[13] = co-culture with cells isolated from colon carcinoma
[14] = co-culture with cells isolated from lung carcinoma
[15] = co-culture with cells isolated from melanoma
[16] = co-culture with cells isolated from ovarian carcinoma

C[C@@H](O[C@H]1OCCN(Cc2n[nH]c(=O)[nH]2)[C@H]1c1ccc(F)cc1)c1cc(C(F)(F)F)cc(C(F)(F)F)c1 [Aprepitant]
0%: PHF cells expressing MMP-3 [1] | PHF cells expressing MMP-7 [1] | PHF cells expressing MMP-9 [1] | PHF cells expressing MMP-11 [1] | PHF cells expressing MMP-13 [1] | PHF cells expressing MMP-14 [1] | PHF cells expressing SPARC [1] | PHF cells expressing TGF-α [1] | PHF cells expressing TGF-β1 [1] | PHF cells expressing TGF-β2 [1] | PHF cells expressing TGF-β3 [1] | cells expressing MMP-3 [2] | cells expressing MMP-7 [2] | cells expressing MMP-9 [2] | cells expressing MMP-11 [2] | cells expressing MMP-13 [2] | cells expressing MMP-14 [2] | cells expressing SPARC [2] | cells expressing TGF-α [2] | cells expressing TGF-β1 [2] | cells expressing TGF-β2 [2] | cells expressing TGF-β3 [2] | macrophages expressing EGF [3] | macrophages expressing MMP-9 [3] | macrophages expressing VEGF [3] | PHF cells expressing MMP-3 [4] | PHF cells expressing MMP-7 [4] | PHF cells expressing MMP-9 [4] | PHF cells expressing MMP-11 [4] | PHF cells expressing MMP-13 [4] | PHF cells expressing MMP-14 [4] | PHF cells expressing SPARC [4] | PHF cells expressing TGF-α [4] | PHF cells expressing TGF-β1 [4] | PHF cells expressing TGF-β2 [4] | PHF cells expressing TGF-β3 [4] | cells expressing MMP-3 [5] | cells expressing MMP-7 [5] | cells expressing MMP-9 [5] | cells expressing MMP-11 [5] | cells expressing MMP-13 [5] | cells expressing MMP-14 [5] | cells expressing SPARC [5] | cells expressing TGF-α [5] | cells expressing TGF-β1 [5] | cells expressing TGF-β2 [5] | cells expressing TGF-β3 [5] | cells expressing MMP-3 [6] | cells expressing MMP-7 [6] | cells expressing MMP-9 [6] | cells expressing MMP-11 [6] | cells expressing MMP-13 [6] | cells expressing MMP-14 [6] | cells expressing SPARC [6] | cells expressing TGF-α [6] | cells expressing TGF-β1 [6] | cells expressing TGF-β2 [6] | cells expressing TGF-β3 [6] | PHF cells expressing MMP-11 [7] | PHF cells expressing MMP-3 [8] | PHF cells expressing MMP-7 [8] | PHF cells expressing MMP-9 [8] | PHF cells expressing MMP-13 [8] | PHF cells expressing MMP-14 [8] | PHF cells expressing SPARC [8] | PHF cells expressing TGF-α [8] | PHF cells expressing TGF-β1 [8] | PHF cells expressing TGF-β2 [8] | PHF cells expressing TGF-β3 [8] | Percentage of macrophages which expressed EGF [9, 12] | Percentage of macrophages which expressed MMP-9 [9, 12] | Percentage of macrophages which expressed VEGF [9, 12] | Percentage of macrophages which expressed EGF [9, 13] | Percentage of macrophages which expressed MMP-9 [9, 13] | Percentage of macrophages which expressed VEGF [9, 13] | Percentage of macrophages which expressed EGF [9, 14] | Percentage of macrophages which expressed MMP-9 [9, 14] | Percentage of macrophages which expressed VEGF [9, 14] | Percentage of macrophages which expressed EGF [9, 15] | Percentage of macrophages which expressed MMP-9 [9, 15] | Percentage of macrophages which expressed VEGF [9, 15] | Percentage of macrophages which expressed EGF [9, 16] | Percentage of macrophages which expressed MMP-9 [9, 16] | Percentage of macrophages which expressed VEGF [9, 16] | PHF cells expressing MMP-3 [10] | PHF cells expressing MMP-7 [10] | PHF cells expressing MMP-9 [10] | PHF cells expressing MMP-11 [10] | PHF cells expressing MMP-13 [10] | PHF cells expressing MMP-14 [10] | PHF cells expressing SPARC [10] | PHF cells expressing TGF-α [10] | PHF cells expressing TGF-β1 [10] | PHF cells expressing TGF-β2 [10] | PHF cells expressing TGF-β3 [10] | fibroblasts expressing MMP-7 [11] | fibroblasts expressing MMP-11 [11] | fibroblasts expressing MMP-14 [11] | fibroblasts expressing TGF-α [11] | fibroblasts expressing TGF-β 1 [11] | fibroblasts expressing TGF-β 2 [11] | fibroblasts expressing TGF-β 3 [11]
